From ChEMBL document CHEMBL5696442, “Discovery of type II inhibitors of TGFβ-activated kinase 1 (TAK1) and mitogen-activated protein kinase kinase kinase kinase 2 (MAP4K2)” (J Med Chem, 2015) come the findings set out here.

Assay [1] has as its target T1, Phosphorylase b kinase gamma catalytic chain, liver/testis isoform (Homo sapiens) (UniProt P15735).
T1 sequence (whole entry): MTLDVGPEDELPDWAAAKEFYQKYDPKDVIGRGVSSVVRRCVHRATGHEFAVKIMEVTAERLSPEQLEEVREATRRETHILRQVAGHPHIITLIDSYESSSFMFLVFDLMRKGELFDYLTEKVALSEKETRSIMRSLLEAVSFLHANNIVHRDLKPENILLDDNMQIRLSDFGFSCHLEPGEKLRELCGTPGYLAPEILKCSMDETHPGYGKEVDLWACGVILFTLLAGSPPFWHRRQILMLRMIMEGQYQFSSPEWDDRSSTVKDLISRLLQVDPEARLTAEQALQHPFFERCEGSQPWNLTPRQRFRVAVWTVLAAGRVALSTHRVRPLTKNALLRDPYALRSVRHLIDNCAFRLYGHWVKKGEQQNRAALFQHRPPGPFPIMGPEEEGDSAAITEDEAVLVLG
Nature of the assay: Inhibition of PHKG2 (unknown origin) at 1 uM by Ambit Kinomescan binding assay relative to control; values are per cent of control.

For assay [2], the target named is Serine/threonine-protein kinase 38-like (Homo sapiens) (UniProt Q9Y2H1). Nature of the assay: Inhibition of NDR2 Lys2 labeling site in human A-375 cells at 5 uM by KiNativ Profiling analysis relative to control. In kind it is cell-based.
Assay [3] deals with Serine/threonine-protein kinase 10 (Homo sapiens) (UniProt O94804). In words: Inhibition of LOK (unknown origin) at 1 uM by Ambit Kinomescan binding assay relative to control; values are per cent of control.
Assay [4] deals with Calcium/calmodulin-dependent protein kinase type II subunit delta (Homo sapiens) (UniProt Q13557). In words: Inhibition of CAMK2d K1 labeling site in human Huh-7 cells at 10 uM by KiNativ Profiling analysis relative to control. In kind it is cell-based.
Assay [5] addresses Calcium/calmodulin-dependent protein kinase type 1 (Homo sapiens) (UniProt Q14012). In words: Inhibition of CaMK1a K1 labeling site in human Huh-7 cells at 1 uM by KiNativ Profiling analysis relative to control. In kind it is cell-based.
Assay [6] has as its target Cyclin-dependent kinase 18 (Homo sapiens) (UniProt Q07002). In words: Inhibition of PCTK3 (unknown origin) at 10 uM by Ambit Kinomescan binding assay relative to control.
The target of assay [7] is Phosphatidylinositol 4,5-bisphosphate 3-kinase catalytic subunit beta isoform (Homo sapiens) (UniProt P42338). In words: Inhibition of PIK3CB ATP labeling site in human Huh-7 cells at 10 uM by KiNativ Profiling analysis relative to control. In kind it is cell-based.
Assay [8] addresses Dual specificity protein kinase CLK2 (Homo sapiens) (UniProt P49760). Nature of the assay: Inhibition of CLK2 (unknown origin) at 10 uM by Ambit Kinomescan binding assay.
For assay [9], the target named is Microtubule-associated serine/threonine-protein kinase 1 (Homo sapiens) (UniProt Q9Y2H9). Nature of the assay: Inhibition of MAST1 Lys2 labeling site in human A-375 cells at 0.5 uM by KiNativ Profiling analysis relative to control.
Assay [10] addresses Serine/threonine-protein kinase/endoribonuclease IRE1 (Homo sapiens) (UniProt O75460). In words: Inhibition of IRE1 Lys2 labeling site in human A-375 cells at 5 uM by KiNativ Profiling analysis relative to control. In kind it is cell-based.
In assay [11] the target is Macrophage-stimulating protein receptor (Homo sapiens) (UniProt Q04912). Nature of the assay: Inhibition of MST1R (unknown origin) at 10 uM by Ambit Kinomescan binding assay.
The target of assay [12] is Phosphatidylinositol 4,5-bisphosphate 3-kinase catalytic subunit beta isoform (Homo sapiens) (UniProt P42338). In words: Inhibition of PIK3CB ATP labeling site harbouring VFGEDSVGVIFKNGDDLRQDMLTLQMLR in human Huh-7 cells at 1 uM by KiNativ Profiling analysis relative to control. In kind it is cell-based.
Assay [13] addresses T2, Serine/threonine-protein kinase TAO1 (Homo sapiens) (UniProt Q7L7X3).
T2 sequence (whole entry): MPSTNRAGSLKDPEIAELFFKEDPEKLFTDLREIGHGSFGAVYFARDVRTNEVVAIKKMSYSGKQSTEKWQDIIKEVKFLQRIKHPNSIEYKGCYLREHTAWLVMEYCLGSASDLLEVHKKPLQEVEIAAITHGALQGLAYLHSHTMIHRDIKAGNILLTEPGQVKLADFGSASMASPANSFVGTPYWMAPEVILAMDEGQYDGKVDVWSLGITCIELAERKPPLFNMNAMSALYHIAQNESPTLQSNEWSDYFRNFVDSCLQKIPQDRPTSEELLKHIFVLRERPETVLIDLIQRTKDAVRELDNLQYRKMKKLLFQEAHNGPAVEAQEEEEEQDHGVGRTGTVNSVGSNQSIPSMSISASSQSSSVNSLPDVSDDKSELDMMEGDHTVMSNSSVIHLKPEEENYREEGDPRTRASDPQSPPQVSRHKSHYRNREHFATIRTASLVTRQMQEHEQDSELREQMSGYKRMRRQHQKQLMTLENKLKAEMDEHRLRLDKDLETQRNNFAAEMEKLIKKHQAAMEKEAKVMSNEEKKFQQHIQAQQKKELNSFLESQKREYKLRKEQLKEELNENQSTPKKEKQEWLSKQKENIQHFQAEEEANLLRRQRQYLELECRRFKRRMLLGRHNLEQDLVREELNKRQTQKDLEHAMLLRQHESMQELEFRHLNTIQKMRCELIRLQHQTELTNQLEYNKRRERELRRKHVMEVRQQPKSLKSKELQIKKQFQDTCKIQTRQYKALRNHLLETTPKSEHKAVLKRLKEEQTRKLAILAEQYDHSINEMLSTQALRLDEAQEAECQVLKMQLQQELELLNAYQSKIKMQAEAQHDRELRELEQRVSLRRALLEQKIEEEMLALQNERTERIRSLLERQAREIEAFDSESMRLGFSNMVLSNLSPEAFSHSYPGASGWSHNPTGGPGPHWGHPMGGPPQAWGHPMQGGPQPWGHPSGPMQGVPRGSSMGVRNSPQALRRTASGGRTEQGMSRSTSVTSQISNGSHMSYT
Nature of the assay: Inhibition of TAO1 Lys2 labeling site in human Huh-7 cell lysate at 1 uM by KiNativ Profiling analysis relative to control. In kind it is subcellular.

The source made the active and inactive calls. No cut-off for these calls is given here.

Chain of Phosphatidylinositol 4,5-bisphosphate 3-kinase catalytic subunit beta isoform (Homo sapiens) (P42338 whole entry, looked up, canonical isoform): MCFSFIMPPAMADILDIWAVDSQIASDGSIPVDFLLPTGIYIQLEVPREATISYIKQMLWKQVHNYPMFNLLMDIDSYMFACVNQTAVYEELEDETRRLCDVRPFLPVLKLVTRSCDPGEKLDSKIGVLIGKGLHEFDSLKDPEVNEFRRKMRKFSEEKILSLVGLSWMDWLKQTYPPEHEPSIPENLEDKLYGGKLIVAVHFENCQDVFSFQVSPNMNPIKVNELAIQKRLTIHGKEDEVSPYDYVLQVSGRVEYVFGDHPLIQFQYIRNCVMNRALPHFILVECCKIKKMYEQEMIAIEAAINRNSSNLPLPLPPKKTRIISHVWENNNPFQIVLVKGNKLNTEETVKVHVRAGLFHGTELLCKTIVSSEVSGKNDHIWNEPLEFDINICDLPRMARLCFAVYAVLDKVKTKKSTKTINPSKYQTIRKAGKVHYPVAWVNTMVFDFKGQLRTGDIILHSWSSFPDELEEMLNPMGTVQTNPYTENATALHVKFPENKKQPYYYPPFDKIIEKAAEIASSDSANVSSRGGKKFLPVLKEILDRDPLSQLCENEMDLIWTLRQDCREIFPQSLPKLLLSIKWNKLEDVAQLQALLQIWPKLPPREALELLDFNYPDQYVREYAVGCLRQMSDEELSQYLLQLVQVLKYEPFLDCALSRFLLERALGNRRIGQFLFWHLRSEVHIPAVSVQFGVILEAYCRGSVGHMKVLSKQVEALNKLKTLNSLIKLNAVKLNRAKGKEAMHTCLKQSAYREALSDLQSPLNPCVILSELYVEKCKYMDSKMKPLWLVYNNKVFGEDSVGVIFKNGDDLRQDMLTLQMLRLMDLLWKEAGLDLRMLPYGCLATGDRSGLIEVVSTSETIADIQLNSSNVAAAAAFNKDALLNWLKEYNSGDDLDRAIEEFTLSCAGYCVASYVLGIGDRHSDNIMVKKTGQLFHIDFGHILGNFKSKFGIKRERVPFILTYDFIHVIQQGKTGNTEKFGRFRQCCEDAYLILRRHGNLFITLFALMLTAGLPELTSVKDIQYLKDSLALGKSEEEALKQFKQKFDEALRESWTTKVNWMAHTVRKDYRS
Chain of Calcium/calmodulin-dependent protein kinase type II subunit delta (Homo sapiens) (Q13557 whole entry): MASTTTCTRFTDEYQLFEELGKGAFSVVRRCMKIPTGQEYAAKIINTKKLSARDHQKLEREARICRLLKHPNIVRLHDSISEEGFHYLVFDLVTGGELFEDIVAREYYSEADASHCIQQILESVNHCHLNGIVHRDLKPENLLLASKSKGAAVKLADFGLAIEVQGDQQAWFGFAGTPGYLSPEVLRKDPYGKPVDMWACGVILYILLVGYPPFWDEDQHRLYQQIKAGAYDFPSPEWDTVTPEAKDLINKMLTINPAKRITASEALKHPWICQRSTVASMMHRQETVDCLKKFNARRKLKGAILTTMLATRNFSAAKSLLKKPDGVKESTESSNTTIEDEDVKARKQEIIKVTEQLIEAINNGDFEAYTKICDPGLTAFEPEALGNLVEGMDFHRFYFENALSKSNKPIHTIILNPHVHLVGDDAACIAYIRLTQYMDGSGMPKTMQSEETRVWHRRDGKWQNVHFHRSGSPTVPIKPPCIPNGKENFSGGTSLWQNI
Chain of Calcium/calmodulin-dependent protein kinase type 1 (Homo sapiens) (Q14012 whole entry, looked up): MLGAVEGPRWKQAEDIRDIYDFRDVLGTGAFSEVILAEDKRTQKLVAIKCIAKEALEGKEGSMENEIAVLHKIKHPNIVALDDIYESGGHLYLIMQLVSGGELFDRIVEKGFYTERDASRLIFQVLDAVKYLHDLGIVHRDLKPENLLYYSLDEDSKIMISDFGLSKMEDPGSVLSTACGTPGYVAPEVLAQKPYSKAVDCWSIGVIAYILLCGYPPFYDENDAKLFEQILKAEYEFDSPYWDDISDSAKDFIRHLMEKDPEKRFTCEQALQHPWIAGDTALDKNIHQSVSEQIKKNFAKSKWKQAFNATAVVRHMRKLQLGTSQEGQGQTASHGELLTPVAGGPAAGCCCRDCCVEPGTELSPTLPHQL
Chain of Cyclin-dependent kinase 18 (Homo sapiens) (Q07002 whole entry, canonical isoform): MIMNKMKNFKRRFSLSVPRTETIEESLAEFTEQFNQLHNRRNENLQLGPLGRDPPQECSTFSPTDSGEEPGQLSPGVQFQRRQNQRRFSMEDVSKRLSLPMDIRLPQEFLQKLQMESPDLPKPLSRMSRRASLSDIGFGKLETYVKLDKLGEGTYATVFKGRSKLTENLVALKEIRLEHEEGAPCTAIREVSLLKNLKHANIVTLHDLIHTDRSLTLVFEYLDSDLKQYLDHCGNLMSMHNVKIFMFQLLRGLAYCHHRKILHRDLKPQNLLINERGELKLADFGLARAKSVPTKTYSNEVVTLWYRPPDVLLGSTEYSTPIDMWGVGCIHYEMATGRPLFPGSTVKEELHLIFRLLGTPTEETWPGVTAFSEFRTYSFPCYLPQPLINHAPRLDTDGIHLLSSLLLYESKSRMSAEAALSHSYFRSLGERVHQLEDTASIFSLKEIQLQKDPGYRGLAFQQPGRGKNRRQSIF
Chain of Serine/threonine-protein kinase 38-like (Homo sapiens) (Q9Y2H1 2-464 limits assumed): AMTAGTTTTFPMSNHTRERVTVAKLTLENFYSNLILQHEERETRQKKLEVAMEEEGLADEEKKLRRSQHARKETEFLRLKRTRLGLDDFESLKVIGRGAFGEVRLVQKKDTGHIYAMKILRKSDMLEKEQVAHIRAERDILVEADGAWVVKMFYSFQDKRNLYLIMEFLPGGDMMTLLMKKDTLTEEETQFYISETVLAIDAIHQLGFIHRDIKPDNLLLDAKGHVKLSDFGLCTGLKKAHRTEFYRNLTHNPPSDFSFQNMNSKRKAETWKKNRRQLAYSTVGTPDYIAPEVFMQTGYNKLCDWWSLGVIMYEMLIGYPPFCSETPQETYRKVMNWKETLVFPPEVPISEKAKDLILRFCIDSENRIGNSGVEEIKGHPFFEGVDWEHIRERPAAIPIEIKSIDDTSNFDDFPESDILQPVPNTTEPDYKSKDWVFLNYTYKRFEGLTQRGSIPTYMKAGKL
Chain of Serine/threonine-protein kinase/endoribonuclease IRE1 (Homo sapiens) (O75460 19-977 limits assumed): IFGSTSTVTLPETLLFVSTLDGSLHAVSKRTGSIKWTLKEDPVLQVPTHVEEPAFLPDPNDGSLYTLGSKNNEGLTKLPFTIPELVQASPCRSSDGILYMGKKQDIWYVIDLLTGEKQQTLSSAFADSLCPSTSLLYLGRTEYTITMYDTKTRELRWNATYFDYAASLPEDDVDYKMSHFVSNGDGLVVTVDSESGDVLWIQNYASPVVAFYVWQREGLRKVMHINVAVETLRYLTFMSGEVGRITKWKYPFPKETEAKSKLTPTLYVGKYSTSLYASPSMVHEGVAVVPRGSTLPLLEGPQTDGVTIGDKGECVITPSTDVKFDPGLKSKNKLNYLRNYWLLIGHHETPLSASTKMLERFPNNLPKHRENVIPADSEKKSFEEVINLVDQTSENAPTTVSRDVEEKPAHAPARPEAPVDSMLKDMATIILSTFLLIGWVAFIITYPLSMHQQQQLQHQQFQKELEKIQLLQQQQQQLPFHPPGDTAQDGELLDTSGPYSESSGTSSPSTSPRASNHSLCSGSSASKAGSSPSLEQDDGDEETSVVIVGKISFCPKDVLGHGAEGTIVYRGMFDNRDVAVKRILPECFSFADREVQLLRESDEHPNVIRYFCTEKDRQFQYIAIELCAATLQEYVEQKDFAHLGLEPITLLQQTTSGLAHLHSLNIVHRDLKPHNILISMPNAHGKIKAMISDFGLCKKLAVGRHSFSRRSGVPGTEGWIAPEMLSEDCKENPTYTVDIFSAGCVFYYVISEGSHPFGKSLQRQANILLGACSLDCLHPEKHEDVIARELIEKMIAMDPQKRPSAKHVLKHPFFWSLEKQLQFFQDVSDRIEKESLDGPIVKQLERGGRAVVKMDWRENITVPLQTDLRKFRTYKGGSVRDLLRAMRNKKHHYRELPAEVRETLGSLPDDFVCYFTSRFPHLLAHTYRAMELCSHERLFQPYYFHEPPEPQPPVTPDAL
Chain of Dual specificity protein kinase CLK2 (Homo sapiens) (P49760 whole entry, looked up): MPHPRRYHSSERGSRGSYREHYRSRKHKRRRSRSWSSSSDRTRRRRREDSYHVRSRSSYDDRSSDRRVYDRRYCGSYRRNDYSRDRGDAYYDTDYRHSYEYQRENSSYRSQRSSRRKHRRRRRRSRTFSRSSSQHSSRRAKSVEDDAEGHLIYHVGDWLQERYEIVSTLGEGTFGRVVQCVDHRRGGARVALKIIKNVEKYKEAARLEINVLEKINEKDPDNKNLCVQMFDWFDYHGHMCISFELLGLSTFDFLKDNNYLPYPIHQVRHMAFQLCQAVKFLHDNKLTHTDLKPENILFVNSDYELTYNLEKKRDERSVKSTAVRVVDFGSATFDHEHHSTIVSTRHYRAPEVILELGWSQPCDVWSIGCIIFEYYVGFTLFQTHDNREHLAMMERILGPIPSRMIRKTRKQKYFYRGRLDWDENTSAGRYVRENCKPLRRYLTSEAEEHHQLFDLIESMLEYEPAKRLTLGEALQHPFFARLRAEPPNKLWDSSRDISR

Take `CCN1CCN(Cc2ccc(NC(=O)c3ccc(C)c(/C=C/c4cnc5[nH]ccc5c4OC)c3)cc2C(F)(F)F)CC1`: the residual activity (usually the signal under treatment as a percentage of the control signal) in assay [1] turned out to be 100%. Besides, the inhibition – broadly, the change of the read-out against control, counted positive when it falls – in assay [2] was 20.9%. This compound came in with a percent of control in assay [3] of 0%.
Consider `CCN1CCN(Cc2ccc(NC(=O)c3ccc(C)c(Oc4ccnc5[nH]ccc45)c3)cc2C(F)(F)F)CC1`, for which the inhibition was 0.1% in [4]; 19% in [5]; 1.8% in [6]; 16.1% in assay [9]; -5.7% in assay [10]. Moreover, the inhibition result in [7], in assay [8] and in assay [11] was “inactive” in each case.
Take `CNc1cc(Oc2cc(C(=O)Nc3cc(N4CCN(C)CC4)cc(C(F)(F)F)c3)ccc2C)ncn1`: the inhibition in [12] is 14%; in assay [13], -1.2%.
